Here are results for two molecules from patent US5300491A, “Treatment of protozoal infection” (priority 1992, dated 1994).

Bridge positions count the residues as written; N and C are the ends. Square brackets hold non-standard residues; d marks the D form. Peptide text beside a SMILES is read from it. * marks the point of attachment. Ileψ(thiazoline)Cys = CC[C@H](C)[C@H](N)C1=N[C@H](C(=O)*)CS1; dOrn = NCCC[C@@H](N)C(=O)O

The subject of one data set is G. lamblia. In words: G. lamblia clinical study. The conditions noted are these: for patients responding: 200,000 IU daily as tablets for ten days. The format is in vivo, Human. The source says: Based upon this dosage, 6 of the ten metronida-zole-resistant patients in Sweden responded to this regime. In addition, all of the 11 non-selected patients in Romania responded to this regime. Eight of these 11 non-selected patients remained clear of infection for the length of the study.

The subject of another data set is Cryptosporidium parvum. The format is in vivo, Human. The source says: The patient was a child, weighing approximately 30 kg. For years, the patient had suffered from moderate diarrhea. Prior to being treated with zinc bacitracin, the patient's stool repeatedly tested positive for intestinal Cryptosporidia. […] The patient received sulfonamide and cefalexin for the influenza during the hiatus. The zinc bacitracin treatment resumed approximately one month later and continued for two weeks thereafter.
After the treatment period, it was observed that the drug was well-tolerated by the patient.

The next data set deals with mouse lymphoma cell. The conditions noted are these: cited from earlier work.
For data set [1] the following is noted: cited from earlier work.
A further data set concerns E. histolytica. In words: Amoebiasis clinical study. It counts as in vivo, Human. How it is done: Cysts and trophozoites of E. histolytica were detected initially by wet preparation screening of faeces, and later confirmed by the formal-ether technique. Full parasitological cure was based upon the presentation of 1-2 negative stool samples within one week post treatment.
In a dose-effect segment of the study, two groups of symptomatic E. histolytica cyst or trophozoite passers attending an outpatient clinic for abdominal pains were treated for either ten or five days.
In a dose-duration study, three groups of patients were observed: Group 1 - symptomatic cyst and trophozoite passers; Group 2 - dysenteric patients with bloody diarrheas; and, Group 3 - asymptomatic cyst passers.

For data set [2], the system named is intestinal amoebic infections. The conditions noted are these: cited from earlier work.
Where [3] appears, read: 11 non-selected patients in Romania.
[4] abbreviates: Group 1, 9 patients treated for two days.
The mark [5] stands for this setting: Group 1, 12 patients treated for 3 days.
Setting [6] is: Table 5 dose-effect study, symptomatic cyst & trophozoite passers, 100,000 I.U. daily for 5 days, 5 patients.
The mark [7] stands for this setting: Table 5 dose-effect study, symptomatic cyst & trophozoite passers, 100,000 I.U. daily for 10 days, 9 patients.
Where [8] appears, read: Table 6 dose-duration study, Group 1 symptomatic cyst and trophozoite passers, 1 day, 2 patients.
Setting [9] is: Table 6 dose-duration study, Group 1 symptomatic cyst and trophozoite passers, 2 days, 9 patients.
Setting [10] is: Table 6 dose-duration study, Group 1 symptomatic cyst and trophozoite passers, 3 days, 12 patients.
The mark [11] stands for this setting: Table 6 dose-duration study, Group 1 symptomatic cyst and trophozoite passers, 5 days, 5 patients.
Where [12] appears, read: Table 7 dose-duration study, Group 2 dysentery cases, 3 days, 5 patients.
The mark [13] stands for this setting: Table 8 dose-duration study, Group 3 asymptomatic cyst passers, 3 days, 9 patients.
[14] abbreviates: Table 8 dose-duration study, Group 3 asymptomatic cyst passers, 5 days, 9 patients.

Zinc bacitracin: the “patients remaining clear of infection for the length of the study” value in the data set with G. lamblia (setting [3]) was “Eight”. Also, the patients responding in the data set on G. lamblia (setting [3]) is recorded as 11; in the data set on G. lamblia (ten metronidazole-resistant patients in Sweden) it was 6. In addition, the “stool parasites over the course of the treatment period” value in the data set on Cryptosporidium parvum (child, 30,000 units thrice daily, 8 days and later two weeks) is “No stool parasites were detected”. Further, in the data set on Cryptosporidium parvum (human, in vivo), the tolerability entry is listed as “well-tolerated”. Besides, the “stool test after end of treatment” value in the data set on Cryptosporidium parvum (one week after the final discontinuation of treatment) was “began to once again test positive for intestinal cryptosporidia”. Moreover, the “mutation frequency at the TK gene locus” value in the data set on mouse lymphoma cell is recorded as “no significant increase in the mutation frequency”. Besides, in data set [1] (rat, in vivo, po), the “absorption from the gut” value was “not absorbed from the gut”. In data set [1] (rat, in vivo, po), the “levels in the livers” value is recorded as “No detectable levels”. Also, in data set [1] (rats, sub-chronic and chronic, feed levels up to 1,000 ppm), the oral toxicity entry is “non-toxic”. For the same molecule, in the data set on E. histolytica (100,000 I.U. daily for 3-5 days), the cure is on record as 100%. For the same molecule, the cure rate in the data set on E. histolytica (setting [4]) stood at 55%; in the data set with E. histolytica (dose-effect study, 9 patients treated for 10 days) it was 100%. Besides, the relapse rate with E. histolytica (setting [4]) stood at 60%. Further, in the data set with E. histolytica (setting [5]), the “patients relapsed (at days 6 and 10)” value is reported as 16%. This molecule also displayed a primary cure rate with E. histolytica (setting [5]) of 100%. For the same molecule, the treatment outcome with E. histolytica (Group 1, two patients treated for 1 day) is recorded as “without success”. For the same molecule, the “subjects showing parasites in their stools again after two weeks” value in the data set on E. histolytica (Group 3 asymptomatic cyst passers, five-day regimen, 9 subjects) came out at 44%. Besides, the “Number Relapsing” value in the data set on E. histolytica (setting [6]) is reported as 0; in the data set with E. histolytica (setting [7]), 0; with E. histolytica (setting [8]) it was 1; in the data set on E. histolytica (setting [9]) it was 3; in the data set with E. histolytica (setting [10]), 2; in the data set on E. histolytica (setting [11]) it was 1. Moreover, the “Number Relapsing” value in the data set with E. histolytica (setting [12]) is listed as 1; with E. histolytica (setting [13]) it was 2; in the data set on E. histolytica (setting [14]) it was 4. In addition, the “Number Responding” value is on record as 5 in the data set with E. histolytica (setting [6]); 9 in the data set with E. histolytica (setting [7]); 1 with E. histolytica (setting [8]); 5 with E. histolytica (setting [9]); 12 in the data set on E. histolytica (setting [10]); 5 with E. histolytica (setting [11]). The “Number Responding” value in the data set on E. histolytica (setting [12]) is recorded as 5; in the data set with E. histolytica (setting [13]), 8; with E. histolytica (setting [14]), 9. Also, in the data set with E. histolytica (all patients of the amoebiasis clinical study, 100,000 I.U. daily), the side effects entry is given as “No side effects were reported”.

With `CC[C@H](C)[C@H](N)C1=N[C@H](C(=O)N[C@@H](CC(C)C)C(=O)N[C@H](CCC(=O)O)C(=O)N[C@H](C(=O)N[C@H]2CCCCNC(=O)[C@H](CC(N)=O)NC(=O)[C@@H](CC(=O)O)NC(=O)[C@H](Cc3cnc[nH]3)NC(=O)[C@@H](Cc3ccccc3)NC(=O)[C@H]([C@@H](C)CC)NC(=O)[C@@H](CCCN)NC2=O)[C@@H](C)CC)CS1` [Bacitracin, reference compound] ({Ileψ(thiazoline)Cys}-L[dE]IK[dOrn]I[dF]H[dD]N; lactam 4-C), in data set [2] (51 patients, 10-20 days, 40,000 to 160,000 units), the parasitological cure is recorded as 66%. In addition, the cure rate in data set [2] (100,000 I.U. daily over ten days) is on record as < 100%.
